For orientation: AC50 means the midpoint of the concentration-response curve, whichever way the signal moves.

Drawing on ChEMBL document CHEMBL5291721, “A preclinical secondary pharmacology resource illuminates target-adverse drug reaction associations of marketed drugs” (Nat Commun, 2023), this text covers AC50 for three molecules.

Test [1] concerns the target T1, Alpha-2C adrenergic receptor (Homo sapiens, UniProt P18825).
T1 sequence (P18825 whole entry): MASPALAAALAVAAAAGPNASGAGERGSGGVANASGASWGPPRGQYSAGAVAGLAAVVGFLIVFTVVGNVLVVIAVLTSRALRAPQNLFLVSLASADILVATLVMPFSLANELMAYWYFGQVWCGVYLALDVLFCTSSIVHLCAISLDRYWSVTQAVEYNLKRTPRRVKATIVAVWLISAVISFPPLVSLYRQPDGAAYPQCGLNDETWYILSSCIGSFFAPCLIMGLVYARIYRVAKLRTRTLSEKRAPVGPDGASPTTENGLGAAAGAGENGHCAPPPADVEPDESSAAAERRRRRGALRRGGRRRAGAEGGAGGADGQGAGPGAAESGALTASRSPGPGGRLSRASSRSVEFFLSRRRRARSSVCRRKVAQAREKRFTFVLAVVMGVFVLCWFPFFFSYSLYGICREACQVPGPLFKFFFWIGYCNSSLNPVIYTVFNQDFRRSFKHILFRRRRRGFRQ
Type of test: functional.

Test [2] concerns the target T2, Type-1 angiotensin II receptor (Homo sapiens, UniProt P30556).
T2 sequence (P30556 whole entry): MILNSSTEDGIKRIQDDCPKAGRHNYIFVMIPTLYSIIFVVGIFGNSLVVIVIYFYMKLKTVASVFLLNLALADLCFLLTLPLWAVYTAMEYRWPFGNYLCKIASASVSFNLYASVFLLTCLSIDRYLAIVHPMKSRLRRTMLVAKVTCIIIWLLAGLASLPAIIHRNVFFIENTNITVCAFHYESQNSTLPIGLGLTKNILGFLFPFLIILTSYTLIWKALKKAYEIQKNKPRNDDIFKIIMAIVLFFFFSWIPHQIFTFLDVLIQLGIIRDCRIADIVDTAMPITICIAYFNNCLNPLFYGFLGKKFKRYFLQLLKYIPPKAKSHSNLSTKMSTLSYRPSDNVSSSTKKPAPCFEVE

Test [3] addresses T3, 5-hydroxytryptamine receptor 2C (Homo sapiens, UniProt P28335).
T3 sequence (P28335 whole entry): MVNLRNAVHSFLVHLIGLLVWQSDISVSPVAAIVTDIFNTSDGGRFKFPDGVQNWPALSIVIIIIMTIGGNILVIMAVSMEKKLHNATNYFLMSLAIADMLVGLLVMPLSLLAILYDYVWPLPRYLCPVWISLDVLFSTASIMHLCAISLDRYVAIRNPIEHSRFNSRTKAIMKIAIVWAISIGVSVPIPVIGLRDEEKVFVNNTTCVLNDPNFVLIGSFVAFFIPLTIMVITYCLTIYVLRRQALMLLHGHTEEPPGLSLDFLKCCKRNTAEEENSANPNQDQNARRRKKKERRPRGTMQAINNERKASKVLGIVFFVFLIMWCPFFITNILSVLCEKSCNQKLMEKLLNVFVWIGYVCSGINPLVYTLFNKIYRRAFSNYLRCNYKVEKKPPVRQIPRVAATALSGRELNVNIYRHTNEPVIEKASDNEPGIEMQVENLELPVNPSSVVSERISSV

Test [4] deals with Melanocortin receptor 4 (Homo sapiens, UniProt P32245).
The target of test [5] is T4, Neuropeptide Y receptor type 1 (Homo sapiens, UniProt P25929).
T4 sequence (P25929 whole entry): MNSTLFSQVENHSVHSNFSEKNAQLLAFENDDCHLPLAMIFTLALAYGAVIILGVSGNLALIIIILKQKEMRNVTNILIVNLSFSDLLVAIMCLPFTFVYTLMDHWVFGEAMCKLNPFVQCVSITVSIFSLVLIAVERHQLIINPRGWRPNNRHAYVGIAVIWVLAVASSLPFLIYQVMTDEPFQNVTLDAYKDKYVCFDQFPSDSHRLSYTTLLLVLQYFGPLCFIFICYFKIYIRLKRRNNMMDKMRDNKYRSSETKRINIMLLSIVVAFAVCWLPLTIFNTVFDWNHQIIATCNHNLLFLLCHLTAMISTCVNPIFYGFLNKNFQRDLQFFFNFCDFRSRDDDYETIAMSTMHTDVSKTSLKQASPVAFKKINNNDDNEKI
As to conditions: read-out: AC50.

For test [6], the target named is Kappa-type opioid receptor (Homo sapiens, UniProt P41145).
In test [7] the target is T5, Thromboxane A2 receptor (Homo sapiens, UniProt P21731).
T5 sequence (P21731 whole entry): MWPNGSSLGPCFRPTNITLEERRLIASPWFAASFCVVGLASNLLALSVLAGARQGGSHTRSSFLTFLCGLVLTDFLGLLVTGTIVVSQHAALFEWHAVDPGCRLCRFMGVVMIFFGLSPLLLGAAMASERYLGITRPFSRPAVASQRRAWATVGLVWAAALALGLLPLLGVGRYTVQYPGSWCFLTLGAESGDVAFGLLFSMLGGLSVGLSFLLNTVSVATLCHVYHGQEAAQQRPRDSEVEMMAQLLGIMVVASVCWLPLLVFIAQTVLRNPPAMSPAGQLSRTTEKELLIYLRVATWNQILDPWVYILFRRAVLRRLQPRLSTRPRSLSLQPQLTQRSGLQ

Test [8] has as its target Sodium-dependent noradrenaline transporter (Homo sapiens, UniProt P23975).
Test [9] concerns the target T6, Amine oxidase [flavin-containing] A (Homo sapiens, UniProt P21397).
T6 sequence (P21397 whole entry): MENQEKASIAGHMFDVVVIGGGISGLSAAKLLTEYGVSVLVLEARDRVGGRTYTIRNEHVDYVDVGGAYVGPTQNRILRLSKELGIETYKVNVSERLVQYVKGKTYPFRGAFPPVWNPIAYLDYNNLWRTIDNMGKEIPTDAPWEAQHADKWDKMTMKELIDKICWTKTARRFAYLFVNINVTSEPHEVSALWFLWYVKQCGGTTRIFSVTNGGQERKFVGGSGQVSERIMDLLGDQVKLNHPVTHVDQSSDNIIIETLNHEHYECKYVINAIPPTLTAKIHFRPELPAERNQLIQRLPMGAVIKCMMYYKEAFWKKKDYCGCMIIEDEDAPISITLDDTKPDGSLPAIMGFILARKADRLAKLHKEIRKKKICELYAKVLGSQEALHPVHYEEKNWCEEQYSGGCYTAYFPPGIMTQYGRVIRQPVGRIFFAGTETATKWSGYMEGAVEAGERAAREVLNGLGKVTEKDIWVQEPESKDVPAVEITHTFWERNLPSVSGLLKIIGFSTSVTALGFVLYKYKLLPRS
Type of test: functional.

The target of test [10] is D(3) dopamine receptor (Homo sapiens, UniProt P35462).
Also: assay procedure not described here.

Chain of D(3) dopamine receptor (P35462 whole entry): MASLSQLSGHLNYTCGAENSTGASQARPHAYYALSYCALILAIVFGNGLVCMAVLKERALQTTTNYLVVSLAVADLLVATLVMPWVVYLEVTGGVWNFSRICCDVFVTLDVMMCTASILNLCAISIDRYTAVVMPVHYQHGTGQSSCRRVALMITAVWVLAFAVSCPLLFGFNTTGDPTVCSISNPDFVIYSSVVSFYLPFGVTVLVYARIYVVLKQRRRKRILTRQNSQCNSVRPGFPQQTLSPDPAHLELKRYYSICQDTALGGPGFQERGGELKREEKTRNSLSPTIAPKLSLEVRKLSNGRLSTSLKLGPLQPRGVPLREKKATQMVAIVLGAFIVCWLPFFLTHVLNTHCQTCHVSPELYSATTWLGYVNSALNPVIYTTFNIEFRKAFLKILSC
Chain of Melanocortin receptor 4 (P32245 whole entry): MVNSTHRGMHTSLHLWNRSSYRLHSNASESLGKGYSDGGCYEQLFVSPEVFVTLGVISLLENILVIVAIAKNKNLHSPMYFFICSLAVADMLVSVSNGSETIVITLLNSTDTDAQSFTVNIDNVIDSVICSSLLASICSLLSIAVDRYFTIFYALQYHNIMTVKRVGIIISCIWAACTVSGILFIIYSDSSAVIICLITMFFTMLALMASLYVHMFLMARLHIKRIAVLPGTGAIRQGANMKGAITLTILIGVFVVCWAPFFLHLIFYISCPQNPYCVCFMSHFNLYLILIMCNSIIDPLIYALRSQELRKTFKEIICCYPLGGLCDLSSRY
Chain of Sodium-dependent noradrenaline transporter (P23975 whole entry): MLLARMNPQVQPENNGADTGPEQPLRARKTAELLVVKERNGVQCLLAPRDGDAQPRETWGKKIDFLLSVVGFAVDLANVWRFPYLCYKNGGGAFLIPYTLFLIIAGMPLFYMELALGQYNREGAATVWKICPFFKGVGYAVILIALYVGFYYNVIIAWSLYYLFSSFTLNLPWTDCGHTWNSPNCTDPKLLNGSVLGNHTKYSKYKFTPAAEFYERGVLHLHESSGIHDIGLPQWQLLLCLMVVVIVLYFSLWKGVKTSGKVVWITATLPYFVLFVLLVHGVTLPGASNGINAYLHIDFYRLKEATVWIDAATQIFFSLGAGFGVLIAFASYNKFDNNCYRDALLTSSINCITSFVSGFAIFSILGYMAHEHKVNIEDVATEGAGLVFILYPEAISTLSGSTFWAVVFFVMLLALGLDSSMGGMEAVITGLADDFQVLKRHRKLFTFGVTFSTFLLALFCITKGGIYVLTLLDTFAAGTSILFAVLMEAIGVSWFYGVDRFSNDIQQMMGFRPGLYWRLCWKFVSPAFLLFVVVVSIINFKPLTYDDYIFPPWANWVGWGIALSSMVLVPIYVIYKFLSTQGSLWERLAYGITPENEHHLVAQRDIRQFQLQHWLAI
Chain of Kappa-type opioid receptor (P41145 whole entry): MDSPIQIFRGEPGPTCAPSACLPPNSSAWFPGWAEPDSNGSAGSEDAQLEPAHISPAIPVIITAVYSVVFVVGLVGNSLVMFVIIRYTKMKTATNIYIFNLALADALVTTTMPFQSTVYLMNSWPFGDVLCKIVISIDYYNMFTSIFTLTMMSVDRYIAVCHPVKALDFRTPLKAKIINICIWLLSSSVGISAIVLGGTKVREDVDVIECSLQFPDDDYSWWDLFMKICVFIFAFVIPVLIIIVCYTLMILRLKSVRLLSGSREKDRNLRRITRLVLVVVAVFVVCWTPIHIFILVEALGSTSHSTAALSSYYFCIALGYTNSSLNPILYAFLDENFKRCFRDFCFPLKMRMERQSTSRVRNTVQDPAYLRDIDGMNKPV

With `CCCC(CCC)C(=O)O` [VALPROIC ACID], the AC50 in test [1] is > 10 µM; in test [2], > 30 µM; in test [3] it was 11 µM; in test [4] it was > 30 µM; in [5], > 30 µM; in [6], > 10 µM. The AC50 in test [7] was > 30 µM; in test [8], > 30 µM; in test [9], > 10 µM; in [10], 4.7 µM.
Consider `C=CC[C@@H]1/C=C(\C)C[C@H](C)C[C@H](OC)[C@H]2O[C@@](O)(C(=O)C(=O)N3CCCC[C@H]3C(=O)O[C@H](/C(C)=C/[C@@H]3CC[C@@H](O)[C@H](OC)C3)[C@H](C)[C@@H](O)CC1=O)[C@H](C)C[C@@H]2OC` [TACROLIMUS ANHYDROUS], for which the concentration at half-maximal activity (AC50) in [1] is > 30 µM; in test [2] it was > 30 µM; in [3] it was > 30 µM; in test [4], > 30 µM; in test [5], > 30 µM; in test [6] it was > 10 µM. Further, the concentration at half-maximal activity (AC50) in [7] was 15.3 µM; in test [8] it was > 30 µM; in test [9], > 30 µM; in test [10], > 30 µM.
As to `CN1C(C(=O)Nc2ccccn2)=C(O)c2ccccc2S1(=O)=O` [PIROXICAM], the concentration at half-maximal activity (AC50) in [1] was > 30 µM; in test [2] it was > 30 µM; in test [3], > 30 µM; in [4] it was > 10 µM; in test [5], > 10 µM; in [6] it was > 10 µM. For the same molecule, the half-maximal activity concentration (AC50) in [7] is > 10 µM; in test [8], > 10 µM; in [9], > 30 µM; in [10], > 30 µM.
